Experimental data: ChEMBL document CHEMBL5143672, “New diarylpentanoids and chalcones as potential antimicrobial adjuvants” (2022)

test system: Escherichia coli; experiment: Antibacterial activity against Escherichia coli ATCC 25922 assessed as inhibition of bacterial growth by broth microdilution method; format: functional; conditions: not given

Row | SMILES | MIC [µg/mL]
1 | COc1ccc(/C=C2\COC/C(=C\c3ccc(OC)c(OC)c3)C2=O)cc1OC | > 64
2 | COc1ccccc1/C=C1\COC/C(=C\c2ccccc2OC)C1=O | > 64
3 | O=C1/C(=C/c2cccc(F)c2)COC/C1=C\c1cccc(F)c1 | > 64
4 | COc1ccccc1/C=C1\Cc2ccccc2C1=O | > 64
5 | COc1cc(OC)c(OC)cc1/C=C1\Cc2ccccc2C1=O | > 64

test system: Pseudomonas aeruginosa; experiment: Antibacterial activity against Pseudomonas aeruginosa ATCC 27853 assessed as inhibition of bacterial growth by broth microdilution method; format: functional; conditions: not given

Row | SMILES | MIC [µg/mL]
6 | COc1ccc(/C=C2\COC/C(=C\c3ccc(OC)c(OC)c3)C2=O)cc1OC | > 64
7 | COc1ccccc1/C=C1\COC/C(=C\c2ccccc2OC)C1=O | > 64
8 | O=C1/C(=C/c2cccc(F)c2)COC/C1=C\c1cccc(F)c1 | > 64
9 | COc1ccccc1/C=C1\Cc2ccccc2C1=O | > 64
10 | COc1cc(OC)c(OC)cc1/C=C1\Cc2ccccc2C1=O | > 64

test system: Salmonella typhimurium; experiment: Antibacterial activity against Salmonella enterica serovar typhimurium SL1344 (SE03) assessed as inhibition of bacterial growth by broth microdilution method; format: functional, Salmonella enterica subsp. enterica serovar Typhimurium; conditions: not given

Row | SMILES | MIC [µg/mL]
11 | COc1ccc(/C=C2\COC/C(=C\c3ccc(OC)c(OC)c3)C2=O)cc1OC | > 64
12 | COc1ccccc1/C=C1\COC/C(=C\c2ccccc2OC)C1=O | > 64
13 | O=C1/C(=C/c2cccc(F)c2)COC/C1=C\c1cccc(F)c1 | > 64
14 | COc1ccccc1/C=C1\Cc2ccccc2C1=O | > 64
15 | COc1cc(OC)c(OC)cc1/C=C1\Cc2ccccc2C1=O | > 64

test system: Staphylococcus aureus; experiment: Antibacterial activity against Staphylococcus aureus ATCC 25923 assessed as inhibition of bacterial growth by broth microdilution method; format: functional; conditions: not given

Row | SMILES | MIC [µg/mL]
16 | COc1ccc(/C=C2\COC/C(=C\c3ccc(OC)c(OC)c3)C2=O)cc1OC | > 64
17 | COc1ccccc1/C=C1\COC/C(=C\c2ccccc2OC)C1=O | > 64
18 | O=C1/C(=C/c2cccc(F)c2)COC/C1=C\c1cccc(F)c1 | > 64
19 | COc1ccccc1/C=C1\Cc2ccccc2C1=O | > 64
20 | COc1cc(OC)c(OC)cc1/C=C1\Cc2ccccc2C1=O | > 64

test system: Enterococcus faecalis; experiment: Antibacterial activity against Enterococcus faecalis ATCC 29212 assessed as inhibition of bacterial growth by broth microdilution method; format: functional; conditions: not given

Row | SMILES | MIC [µg/mL]
21 | COc1ccc(/C=C2\COC/C(=C\c3ccc(OC)c(OC)c3)C2=O)cc1OC | > 64
22 | COc1ccccc1/C=C1\COC/C(=C\c2ccccc2OC)C1=O | > 64
23 | O=C1/C(=C/c2cccc(F)c2)COC/C1=C\c1cccc(F)c1 | > 64
24 | COc1ccccc1/C=C1\Cc2ccccc2C1=O | > 64
25 | COc1cc(OC)c(OC)cc1/C=C1\Cc2ccccc2C1=O | > 64

test system: Staphylococcus aureus; experiment: Antibacterial activity against methicillin and ofloxacin-resistant Staphylococcus aureus 272123 assessed as inhibition of bacterial growth by broth microdilution method; format: functional; conditions: not given

Row | SMILES | MIC [µg/mL]
26 | COc1ccc(/C=C2\COC/C(=C\c3ccc(OC)c(OC)c3)C2=O)cc1OC | > 64
27 | COc1ccccc1/C=C1\COC/C(=C\c2ccccc2OC)C1=O | > 64
28 | O=C1/C(=C/c2cccc(F)c2)COC/C1=C\c1cccc(F)c1 | > 64
29 | COc1ccccc1/C=C1\Cc2ccccc2C1=O | > 64
30 | COc1cc(OC)c(OC)cc1/C=C1\Cc2ccccc2C1=O | > 64

test system: Candida albicans; experiment: Antifungal activity against Candidia albicans ATCC 10231 assessed as inhibition of fungal growth by broth microdilution method; format: functional; conditions: not given

Row | SMILES | MIC [µg/mL]
31 | COc1ccc(/C=C2\COC/C(=C\c3ccc(OC)c(OC)c3)C2=O)cc1OC | > 128
32 | COc1ccccc1/C=C1\COC/C(=C\c2ccccc2OC)C1=O | > 128
33 | O=C1/C(=C/c2cccc(F)c2)COC/C1=C\c1cccc(F)c1 | > 128
34 | COc1ccccc1/C=C1\Cc2ccccc2C1=O | > 128
35 | COc1cc(OC)c(OC)cc1/C=C1\Cc2ccccc2C1=O | > 128

test system: Aspergillus fumigatus; experiment: Antifungal activity against Aspergillus fumigatus ATCC 204305 assessed as inhibition of fungal growth by broth microdilution method; format: functional; conditions: not given

Row | SMILES | MIC [µg/mL]
36 | COc1ccc(/C=C2\COC/C(=C\c3ccc(OC)c(OC)c3)C2=O)cc1OC | > 128
37 | COc1ccccc1/C=C1\COC/C(=C\c2ccccc2OC)C1=O | > 128
38 | O=C1/C(=C/c2cccc(F)c2)COC/C1=C\c1cccc(F)c1 | > 128
39 | COc1ccccc1/C=C1\Cc2ccccc2C1=O | > 128
40 | COc1cc(OC)c(OC)cc1/C=C1\Cc2ccccc2C1=O | > 128

test system: Trichophyton rubrum; experiment: Antifungal activity against Trichophyton rubrum FF5 assessed as inhibition of fungal growth by broth microdilution method; format: functional; conditions: not given

Row | SMILES | MIC [µg/mL]
41 | COc1ccc(/C=C2\COC/C(=C\c3ccc(OC)c(OC)c3)C2=O)cc1OC | > 128
42 | COc1ccccc1/C=C1\COC/C(=C\c2ccccc2OC)C1=O | > 128
43 | O=C1/C(=C/c2cccc(F)c2)COC/C1=C\c1cccc(F)c1 | > 128
44 | COc1ccccc1/C=C1\Cc2ccccc2C1=O | > 128
45 | COc1cc(OC)c(OC)cc1/C=C1\Cc2ccccc2C1=O | > 128

test system: Escherichia coli; experiment: Antimicrobial adjuvant activity against ESBL-producing Escherichia coli SA/2 assessed as potentiation of cefotaxime-induced antibacterial activity by measuring fold reduction in cefotaxime MIC at 64 ug/ml by broth microdilution method; format: functional; conditions: dose 64 µg/ml

Row | SMILES | fold change (FC)
46 | COc1ccc(/C=C2\COC/C(=C\c3ccc(OC)c(OC)c3)C2=O)cc1OC | 2
47 | COc1ccccc1/C=C1\COC/C(=C\c2ccccc2OC)C1=O | 2
48 | COc1cc(OC)c(OC)cc1/C=C1\Cc2ccccc2C1=O | 2

test system: Enterococcus faecalis; experiment: Antimicrobial adjuvant activity against Enterococcus faecalis B3/101 assessed as potentiation of vancomycin-induced antibacterial activity by measuring fold reduction in vancomycin MIC at 64 ug/ml by broth microdilution method; format: functional; conditions: dose 64 µg/ml

Row | SMILES | fold change (FC)
49 | O=C1/C(=C/c2cccc(F)c2)COC/C1=C\c1cccc(F)c1 | 2
50 | COc1ccccc1/C=C1\Cc2ccccc2C1=O | 2
51 | COc1cc(OC)c(OC)cc1/C=C1\Cc2ccccc2C1=O | 2

test system: Salmonella enterica subsp. enterica serovar Typhimurium; experiment: Inhibition of Multidrug resistance efflux pump in Salmonella enterica serovar typhimurium SL1344 (SE03) assessed as relative fluorescence index using ethidium bromide as substrate at 50 uM by fluorescence based analysis; conditions: not given

Row | SMILES | RFU
52 | COc1ccc(/C=C2\COC/C(=C\c3ccc(OC)c(OC)c3)C2=O)cc1OC | -0.02
53 | COc1ccccc1/C=C1\COC/C(=C\c2ccccc2OC)C1=O | 0.16
54 | O=C1/C(=C/c2cccc(F)c2)COC/C1=C\c1cccc(F)c1 | 0.04
55 | COc1ccccc1/C=C1\Cc2ccccc2C1=O | 0.25
56 | COc1cc(OC)c(OC)cc1/C=C1\Cc2ccccc2C1=O | 0.11

test system: not listed separately; experiment: Inhibition of Multidrug resistance efflux pump in Staphylococcus aureus 272123 assessed as relative fluorescence index using ethidium bromide as substrate at 50 uM by fluorescence based analysis; conditions: not given

Row | SMILES | RFU
57 | COc1ccc(/C=C2\COC/C(=C\c3ccc(OC)c(OC)c3)C2=O)cc1OC | 2.47
58 | COc1ccccc1/C=C1\COC/C(=C\c2ccccc2OC)C1=O | 0.21
59 | O=C1/C(=C/c2cccc(F)c2)COC/C1=C\c1cccc(F)c1 | -0.16
60 | COc1ccccc1/C=C1\Cc2ccccc2C1=O | 0.05
61 | COc1cc(OC)c(OC)cc1/C=C1\Cc2ccccc2C1=O | -0.34

test system: Staphylococcus aureus; experiment: Inhibition of biofilm formation in Staphylococcus aureus ATCC 25923 at 100 uM incubated for 48 hrs by crystal violet staining based analysis; format: functional; conditions: not given

Row | SMILES | inhibition at 100 µM [%]
62 | COc1ccc(/C=C2\COC/C(=C\c3ccc(OC)c(OC)c3)C2=O)cc1OC | 0

test system: Staphylococcus aureus; experiment: Inhibition of biofilm formation in Staphylococcus aureus 272123 at 100 uM incubated for 48 hrs by crystal violet staining based analysis; format: functional; conditions: not given

Row | SMILES | inhibition at 100 µM [%]
63 | COc1ccc(/C=C2\COC/C(=C\c3ccc(OC)c(OC)c3)C2=O)cc1OC | 0

test system: not listed separately; experiment: Inhibition of quorum sensing system in Chromobacterium violaceum wild type 85 assessed as reduction in pigment production incubated for 24 to 48 hrs; conditions: time 24-48 hrs

Row | SMILES | Activity [mm]
64 | CC(CN1c2ccccc2Sc2ccccc21)N(C)C (centres undefined) | 40
65 | COc1ccc(/C=C2\COC/C(=C\c3ccc(OC)c(OC)c3)C2=O)cc1OC | 0

test system: Serratia marcescens; experiment: Inhibition of quorum sensing system in Serratia marcescens AS-1 assessed as reduction in pigment production incubated for 24 to 48 hrs; conditions: time 24-48 hrs

Row | SMILES | Activity [mm]
66 | CC(CN1c2ccccc2Sc2ccccc21)N(C)C (centres undefined) | 18
67 | COc1ccc(/C=C2\COC/C(=C\c3ccc(OC)c(OC)c3)C2=O)cc1OC | 0

test system: not listed separately; experiment: Inhibition of quorum sensing system in Chromobacterium violaceum CV026 assessed as reduction in pigment production co-cultured with Sphingomonas paucimobilis Ezf 10-17 for 24 to 48 hrs; conditions: time 24-48 hrs

Row | SMILES | Activity [mm]
68 | CC(CN1c2ccccc2Sc2ccccc21)N(C)C (centres undefined) | 41
69 | COc1ccc(/C=C2\COC/C(=C\c3ccc(OC)c(OC)c3)C2=O)cc1OC | 0
